US6414222B1, “Gene combinations for herbicide tolerance in corn” (Regents of the University of Minnesota, priority 1993, dated 2002)
Where two headings read alike, the source gives them in different places.

What was measured:
[1] = system: cell line 2167-9/2160-154 S-1; assay: Callus herbicide tolerance, line S-1; format: cell-based, maize; settings: cell line S-1
Protocol: (§1) Tolerant cell line 2167-9/2160-154 S-2 (“S-2”) was characterized to evaluate: (1) the magnitude of sethoxydim tolerance; (2) cross-tolerance of haloxyfop; and (3) the biochemical basis for the tolerance. Callus tissue from S-2 that had been maintained on 10 μM sethoxydim was transferred to media containing up to 100 μM sethoxydim. One-half gram of S-2 tissue was plated on a 7 cm filter paper as a lawn overlaying 50 ml agar-solidified culture medium containing 0, 0.5, 1.0, 2.0, 5.0, 10.0, 50.0 and 100 μM sethoxydim, and cultured for two weeks. Control cell line 2167-9/2160-154 was plated similarly on medium containing the same levels of sethoxydim. The control cell line growth after two weeks was inhibited 50% at 1 μM sethoxydim.
The tolerant callus cultures were characterized to determine the magnitude of sethoxydim and haloxyfop tolerance. Callus tissue from these lines was evaluated in experiments as described above in the characterization of line 2167-9/2160-154 S-2.

[2] = system: fatty acid synthetase; assay: [14C]malonyl-CoA incorporation into fatty acids, cell-free extracts from corn suspension cultures; format: biochemical, Black Mexican Sweet (BMS) corn
Protocol: Incorporation of [^14C]malonyl-Coenzyme A into fatty acids (P. B. Hoj et al., supra; and J. B. Ohlrogge et al., Proc. Natl. Acad. Sci. USA, 76, 1194-1198 (1979)) was assayed using cell-free preparations from BMS tissue culture. Cells harvested during logarithmic growth phase were frozen in liquid nitrogen, ground with a mortar and pestle, and thawed in a medium containing: 0.1 M HEPES-KOH, pH 7.5; 0.3 M glycerol, and 5 mM DTT (buffer:tissue, 2:1, v/w). The homogenate was centrifuged at 12,000 g for 20 minutes. The supernatant was filtered through miracloth and centrifuged (125,000 g) for 60 minutes and then filtered through miracloth and assayed. Assays were conducted at 25° C. in a 0.4 ml volume containing: 1.0 mM ATP, 0.32 mM NADPH, 0.38 mM NADH, 25 μM CoA, 10 μM acetyl-CoA, 25 μg acyl-carrier protein, and 12 μM malonyl-CoA (11.54 μCi/μmol). Reactions were initiated by addition of [^14C]malonyl CoA and stopped by addition of 0.4 ml 40% KOH. Label incorporation into fatty acids was determined as above. Chlorophyll (D. I. Arnon, Plant Physiol., 24, 1-15 (1949)) and protein (P. K. Smith et al., Anal. Biochem., 150, 76-85 (1985)) were determined as described therein.

[3] = system: ACCase of cell line 2167-9/2160-154 H-1; assay: Herbicide inhibition of ACCase, line H-1; format: biochemical, maize; settings: cell line H-1
Protocol: (§2) Maize chloroplasts, isolated as described above, were suspended in buffer C (0.1 M Tricine-KOH, pH 8.0; 0.3 M glycerol, and 1 mM DTT) and homogenized in a glass tissue homogenizer. The disrupted chloroplast fraction was centrifuged at 16,000 g for 15 minutes. The supernatant was desalted on a Sephadex G-25 column (1.5×5 cm equilibrated with 0.1 M Tricine-KOH, pH 8.0; and 0.3 M glycerol) and assayed directly. ACCase activity (B. J. Nikolau et al., Arch. Biochem. Biophys., 211, 605-612 (1981)) was assayed at 30° C. in a 0.2 ml volume which contained 1 mM ATP, 3 mM acetyl coenzyme A, 2.5 mM MgCl2, 50 mM KCl, 0.5 mM DTT, and 15 mM [^14C]NaHCO3 (0.17 mCi/mmol). Reactions were initiated by addition of acetyl coenzyme A and stopped by addition of 25 μl of 12 N HCl. Product formation was determined by the radioactivity found in an acid stable fraction by liquid scintillation spectrometry. Enzyme activity was linear for 15 minutes.
Acetyl Coenzyme A Carboxylase (ACCase) was extracted from cell lines S-1, H-1 and H-2 and assayed as described in detail for maize cell line S-2, above.

[4] = system: tolerant cell line 2167-9/2160-154 S-2; assay: Callus growth on herbicide medium, line S-2; format: cell-based, maize
Protocol: as §1

[5] = system: acetyl-coenzyme A carboxylase (ACCase) (EC 6.4.1.2) in maize chloroplasts; assay: Acetyl-Coenzyme A Carboxylase (ACCase) activity of maize chloroplasts; format: biochemical
Protocol: as §2

[6] = system: control cell line 2167-9/2160-154; assay: Callus growth on herbicide medium, control line; format: cell-based, maize; settings: for IC50: read-out: Herbicide concentration inhibiting growth 50%
Protocol: A selection protocol to identify and isolate herbicide-tolerant maize cells was developed to minimize the adverse effects of high herbicide concentrations on somatic embryo development and plant regeneration capacity. The procedure involved exposing tissue to gradually increasing concentrations of herbicide beginning with a sethoxydim concentration representing 1/20th of lethal dose and doubling the herbicide concentration at approximately two-week intervals until the lethal dose (10 μM sethoxydim) was reached. In this way, the herbicide was allowed to take effect slowly with continuous selection pressure, thus permitting herbicide-tolerant cells to accumulate over time while not affecting the potential for plant regeneration.
Approximately 100 grams of vigorously growing, regenerable, friable, embryogenic maize callus tissue established from an F1 immature embryo resulting from the cross A188×B73 were transferred to agar-solidified maintenance medium (Armstrong and Green, Planta, 164, 207 (1985)) in petri plates containing 0.5 μM sethoxydim (BASF) (Parsippany, N.J.). This callus line was designated 2167-9/2160-154. Forty plates were prepared and five clumps of callus tissue weighing about 0.5 grams each were placed on each plate. The 0.5 μM sethoxydim concentration was chosen from growth inhibition studies to provide less than 10-20% growth inhibition during the first two weeks of herbicide exposure. After 14 days, 0.25-0.5 gram pieces of tissue showing vigorous growth rate and retention of embryogenic morphology (i.e., presence of somatic embryos) were subcultured on fresh medium containing 1.0 μM sethoxydim. Eighty plates containing five pieces of tissue per plate were prepared. For each subsequent transfer, all callus tissue showing growth and somatic embryo forming ability was placed on fresh media containing a two-fold increased sethoxydim concentration. Therefore, callus was transferred at two-week intervals to petri plates containing 0.5, 1.0, 2.0, 5.0 and 10.0 μM sethoxydim. During the course of the selection process, the total number of lines decreased as the herbicide-mediated growth inhibition became more intense. […] These lines were designated 2167-9/2160-154 S-1 and 2167-9/2160-154 S-2.
Tolerant cell line 2167-9/2160-154 S-2 (“S-2”) was characterized to evaluate: (1) the magnitude of sethoxydim tolerance; (2) cross-tolerance of haloxyfop; and (3) the biochemical basis for the tolerance. Callus tissue from S-2 that had been maintained on 10 μM sethoxydim was transferred to media containing up to 100 μM sethoxydim. One-half gram of S-2 tissue was plated on a 7 cm filter paper as a lawn overlaying 50 ml agar-solidified culture medium containing 0, 0.5, 1.0, 2.0, 5.0, 10.0, 50.0 and 100 μM sethoxydim, and cultured for two weeks. […]

Structure (SMILES) | Fold increase in herbicide concentration that results in a 50% reduction in growth vs unselected control cell line [1] | Effect on [14C]malonyl-CoA incorporation into fatty acids (fatty acid synthetase activity) ([2]; sethoxydim 10 μM) | Fold increase in herbicide concentration that inhibits ACCase activity by 50% vs unselected parent cell line [3] | Growth of S-2 callus ([4]; 100 μM sethoxydim, cultured two weeks) | Fold increase in tolerance of S-2 versus control callus line (growth) ([4]; callus growth) | Effect on ACCase in maize chloroplasts [5] | inhibition at 0.5 µM ([6]; Zea mays, 336 h, read-out: Growth inhibition) | IC50 ([6]; Zea mays, 336 h) | Lethal dose for callus tissue ([6]; tissue culture selection protocol) | Fold increase in herbicide concentration that results in a 50% reduction in growth vs unselected control cell line ([1]; listed as haloxyfop) | Effect on [14C]malonyl-CoA incorporation into fatty acids (fatty acid synthetase activity) ([2]; haloxyfop 1 μM) | Fold increase in herbicide concentration that inhibits ACCase activity by 50% vs unselected parent cell line ([3]; listed as haloxyfop) | IC50 ([4]; Zea mays, callus growth, read-out: Herbicide concentration inhibiting growth of S-2) | IC50 ([6]; Zea mays, 336 h, control callus, growth after two weeks)
CCCC(=NOCC)C1=C(O)CC(CC(C)SCC)CC1=O (stereo not drawn) [Sethoxydim, 2-[1-(ethoxyimino)-butyl]-5-[2-(ethylthio)propyl]-3-hydroxy-2-cyclohexen-1-one] | ~100 fold | did not inhibit | 0 fold | not inhibited | at least 100 fold | inhibit | 10 to 20% | 1000 nM | 10 µM | – | – | – | – | –
CC(Oc1ccc(Oc2ncc(C(F)(F)F)cc2Cl)cc1)C(=O)O (stereo not drawn) [Haloxyfop, 2-[4-[[3-chloro-5-(trifluoromethyl)-2-pyridinyl]oxy]phenoxy]-propanoic acid] | 4^1 fold | – | 7 fold | – | ~30 fold | inhibit | – | – | – | four-fold increase | did not inhibit | more tolerant | 650 nM | 20 nM
